Target: T1, FPRL1 (Homo sapiens, UniProt P25090)
T1 construct: expressed in transfected cells; host or cells: RBL-2H3 (rat basophilic leukemia) cells, G418-selected
T1 sequence (P25090 1-351): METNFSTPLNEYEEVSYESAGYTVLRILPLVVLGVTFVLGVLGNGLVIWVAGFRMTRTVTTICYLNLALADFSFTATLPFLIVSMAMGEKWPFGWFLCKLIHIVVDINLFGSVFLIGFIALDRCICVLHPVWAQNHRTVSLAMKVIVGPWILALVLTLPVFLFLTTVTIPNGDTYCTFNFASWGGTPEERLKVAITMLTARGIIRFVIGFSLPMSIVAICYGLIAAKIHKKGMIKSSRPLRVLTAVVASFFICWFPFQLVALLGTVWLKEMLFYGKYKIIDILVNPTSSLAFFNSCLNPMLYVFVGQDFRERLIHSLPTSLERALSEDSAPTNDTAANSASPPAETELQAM
Test: Akt phosphorylation in FPRL1-expressing RBL-2H3 cells (immunoblot)
Assay type: cell-based
Settings: 10 μM peptides 5 min (WKYMVm time course 1 μM)
Description: It is well known that activation of chemoattractant receptors induces Akt activation via PI3K (19). Stimulation of cells with the peptides, electrophoresis and immunoblot analysis were performed according to the same method as in Example 5.
FPR- or FPRL1-expressing RBL-2H3 cells were stimulated with 1 μM WKYMVm for various periods of time (FIG. 4A). Two cells were preincubated with a vehicle or 100 ng/ml of PTX (24 hr), 50 μM of LY294002 (15 min), 5 μM of GFX (15 min), 10 μM BAPTA/AM (60min), or 50 μM PD98059 (60 min) prior to treatment with 1 μM of WKYMVm (FIG. 4B). FPR- and FPRL1-expressing RBL2H3 cells were stimulated with 10 μM of WKYMVm and the present peptides for 2 min or 5 min, respectively (FIG. 4C). Each sample (30 μg of protein) was subjected to 10% SDS-PAGE and phosphorylated Akt was determined by immunoblot analysis with an anti-phospho-Akt antibody. A western blot analysis with an anti-Akt antibody was performed to confirm that the same amounts of samples were used for the experiments. The results are shown FIGS. 4A to 4C. Results of FIGS. 4A to 4C are the representative of 3 independent experiments.

CSCC[C@H](NC(=O)[C@H](Cc1ccc(O)cc1)NC(=O)[C@H](CCCCN)NC(=O)[C@@H](N)Cc1c[nH]c2ccccc12)C(=O)N[C@H](C(=O)N[C@H](CCSC)C(N)=O)C(C)C [WKYMVm-NH2, Trp-Lys-Tyr-Met-Val-D-Met-NH2, reference compound]
Akt phosphorylation: stimulated Akt phosphorylation

From patent US7517857B2, “Immune-modulating peptide” (POSCO, priority 2002, dated 2009)
